# According to publication doi:10.1101/2025.03.14.643404, “A Bivalent Molecular Glue Linking Lysine Acetyltransferases to Oncogene-induced Cell Death” (bioRxiv, 2025):
# pIC50: −log10 of the molar value.
# How the values were obtained:
# [1] = tested on: SUDHL5; test: Cell viability, 7 days compound treatment (Cell Titer-Glo), SUDHL5; type: cell-based; conditions: Homo sapiens, SU-DHL-5, 168 h; SUDHL5, 7 days; read-out: IC50 of antiproliferation
# Method: Fifteen thousand cells were seeded in 100 μl of media per well of a U-bottom 96-well plate and treated with digitally dispensed drugs (Tecan D300e) for the indicated times and doses. After 96 hours, plates were centrifuged for 750 rpm for 3 minutes, and old media was exchanged for 100 μl of fresh media. Drug treatment was then repeated at the indicated doses. 72 hours following media change, cells were transferred to 96 well flat-bottom opaque plates. Viability was measured by adding 25 μL Cell Titer-Glo reagent (Promega G7570) to each well and luminescence was measured (BMG Labtech Pherastar FS). The background luminescence was subtracted, and the signal was normalized to DMSO-treated cells. IC50 measurements on cell lines were calculated using at least three biological replicates by separate cell passages. Fit of dose–response curves to data and statistical analysis was performed using GraphPad PRISM using the four-parameter log(inhibitor) vs response function.
# [2] = tested on: c-MYC; test: RNA-seq, c-MYC transcripts in SUDHL5; type: cell-based, human; conditions: SUDHL5, 1 nM, 2 hours
# Method: Cells were plated at 1M/mL and harvested in TRIsure (Bioline 38033). RNA was extracted using Direct-zol RNA MicroPrep columns (Zymo R2062) treated with DNAseI. cDNA was prepared (Meridian Bioscience BIO-65054) and used for qPCR (Meridian Bioscience BIO-94050) using an AppliedBiosystems QuantStudio 6Pro. Primer sequences were the following:
# For sequencing library preparation, rRNA was depleted (NEB E7400) and total RNA prepared into paired-end libraries (NEB E7765) and indexed (NEB E7335). Library size distributions were confirmed using an Agilent Bioanalyzer and High Sensitivity DNA reagents (Agilent 5067) and concentrations determined by qPCR. […]
# Raw reads were checked for quality using fastqc (https://www.bioinformatics.babraham.ac.uk/projects/fastqc/) and trimmed from adapters using cutadapt[111] using parameters cutadapt -a […] -b […] --nextseq-trim=20 --minimum-length 1. Transcripts were quantified using kallisto[112] against the human Gencode v33 indexed transcriptome and annotations. […] Re-processed published datasets from the Sequence Read Archive (SRA) were the following: TCIP1 – SRX20228454, SRX20228455, SRX202284546, SRX20228457, SRX20228458, SRX20228459, SRX20228448, SRX20228449, SRX20228450; CDK-TCIP1 – SRX22117221, SRX22117222, SRX22117223, SRX22117224, SRX22117225, SRX22117226, SRX22117227, SRX22117228, SRX22117229).
# [3] = tested on: SUDHL5 cells; test: Cell cycle analysis (EdU / 7-AAD) of SUDHL5; type: cell-based, human; conditions: SUDHL5, 10 nM, 24 hours
# Method: 2 million SUDHL5 cells were plated in 4 mL of media in 6-well plates and treated with 10 nM of drug. After 22 hours, cells were dosed with 10 μM 5-ethynyl-2’-deoxyuridine (EdU) and allowed to incubate for an additional 2 hours, at which point cells were harvested and collected by centrifuging at 300g for 4 minutes at 4°C. Cells were washed once with 1% BSA in PBS. 1.1 million cells in 1% BSA/PBS were then transferred to flow cytometry polypropylene tubes and centrifuged at 300g for 4 minutes at 4°C. Supernatant was removed, and cells were fixed for 15 minutes in the dark at room temperature with 100 μL of 4% PFA in PBS, in which gentle flicking was used to resuspend cells. Cells were then washed with 1 mL of 1% BSA/PBS and permeabilized with 100 μL of 0.1% Triton-X for 30 minutes at room temperature in the dark. Cells were washed with 3 mL 1% BSA/PBS, then incubated in the dark for 30 minutes with a cocktail of AlexaFluor-488-Azide (438 μL PBS, 10 μL 100 mM CuSO4, 2 μL 488-azide, and 50 μL of 1x EdU Reaction Buffer dissolved in water) (Invitrogen C10337). Cells were washed with 1 mL 1% BSA in PBS, then incubated with a reaction cocktail of 7-AAD/RNAseA for 30 minutes in the dark (500 μL 1% BSA/PBS, 2 μL 7-AAD (BD 559925), 5 μL RNAseA (Invitrogen 12091021)). […] Cells were gently agitated by shaking, then analyzed through flow cytometry on a BD Accuri. […]
structure (smiles),measurement,setting,value
CNC(=O)COc1cc2cc(Nc3nc(N4CCC(C(=O)N5CCN(CCC(=O)N6CCC(n7nc(N8CCCc9cc(-c%10cnn(C)c%10)c(C(F)F)cc98)c8c7CCN(C(=O)NC)C8)CC6)CC5)CC4)ncc3Cl)cc(OC)c2n(C)c1=O [TCIP3],pIC50,[1],8.92
same,c-MYC mRNA log2(fold change),[2],−2.71
same,cell cycle effect,[3],enrichment in cells arrested in G0/G1
